# Test results reported in patent publication US20220389355A1, “CELL AGGREGATE, PRODUCING METHOD FOR MANUFACTURING CELL AGGREGATE, PRODUCING KIT FOR CELL AGGREGATE, AND CHEMICAL COMPOUND EVALUATING METHOD USING CELL AGGREGATE” (THE JAPAN WOOL TEXTILE CO., LTD., priority 2019, published 2022).
# Like-named read-outs stand apart in the source and are kept apart here.
# Tests used:
# [1] = system: cardiomyocyte multicellular construct (human iPS cell derived cardiomyocytes); assay: Example 8: calcium imaging, ratio of specimens with arrhythmia waveform; settings: for Ratio of specimens that exhibited the calcium ion signal waveform corresponding to arrhythmia, Dose 1 (%): Dose 1 of Table 5: azithromycin 1 μM, chloroquine or hydroxychloroquine 0.3 μM; for Ratio of specimens that exhibited the calcium ion signal waveform corresponding to arrhythmia, Dose 1 (%) / Ratio of specimens that exhibited the calcium ion signal waveform corresponding to arrhythmia, Dose 2 (%) / Ratio of specimens that exhibited the calcium ion signal waveform corresponding to arrhythmia, Dose 3 (%) / Ratio of specimens that exhibited the calcium ion signal waveform corresponding to arrhythmia, Dose 4 (%): alone or with azithromycin fixed to 3 μM; for Ratio of specimens that exhibited the calcium ion signal waveform corresponding to arrhythmia, Dose 2 (%): Dose 2 of Table 5: azithromycin 3 μM, chloroquine or hydroxychloroquine 1 μM; for Ratio of specimens that exhibited the calcium ion signal waveform corresponding to arrhythmia, Dose 3 (%): Dose 3 of Table 5: azithromycin 10 μM, chloroquine or hydroxychloroquine 3 μM; for Ratio of specimens that exhibited the calcium ion signal waveform corresponding to arrhythmia, Dose 4 (%): Dose 4 of Table 5: chloroquine or hydroxychloroquine 10 μM, azithromycin alone: no Dose 4 in Table 5
# [2] = system: cardiomyocyte multicellular construct (human iPS cell derived cardiomyocytes); assay: Example 8: contractile force of cardiomyocyte multicellular construct, ratio of specimens with halved contractile force; settings: alone or with azithromycin fixed to 3 μM; for Ratio of specimens whose contractile force decreased to half of that before the addition, Dose 1 (%): Dose 1 of Table 5: azithromycin 1 μM, chloroquine or hydroxychloroquine 0.3 μM; for Ratio of specimens whose contractile force decreased to half of that before the addition, Dose 2 (%): Dose 2 of Table 5: azithromycin 3 μM, chloroquine or hydroxychloroquine 1 μM; for Ratio of specimens whose contractile force decreased to half of that before the addition, Dose 3 (%): Dose 3 of Table 5: azithromycin 10 μM, chloroquine or hydroxychloroquine 3 μM
# [3] = system: cardiomyocyte multicellular construct (human iPS cell derived cardiomyocytes); assay: Example 7: calcium imaging evaluation of response of cardiomyocyte multicellular construct against compound; type: cell-based; settings: seventh day of the culture; for Calcium ion signal waveform compared with before the addition: 1000 nM, cumulative addition, 10 minutes after addition; for Beating rate compared with before the addition: cumulative addition 1 to 1000 nM
# Experimental: Cells were seeded and cultured in the same manner as in Example 6, except that the cells were seeded such that the seeding amount per unit area of the scaffold was 6000 cells/mm^2.
# On the sixth day of the culture, the cardiomyocyte multicellular construct was placed such that a surface containing more cells faced the bottom surface of a culture dish (IWAKI Multiwell Plate, Non-treated surface for suspension cell culture 6. Well), and was then left to stand for a day. On the seventh day of the culture, a calcium indicator (EarlyTox Cardiotoxicity Kit, Molecular Devices LLC) was added to the culture medium at a volume ratio of 25/100 to fluorescently stain calcium ions in the cardiomyocytes.
# The fluorescence intensities in the entire 10-fold magnified visual fields of the obtained images were plotted versus time using an analysis software CellPathfinder, Yokogawa Electric Corp.), and thus signal waveforms of calcium ions in the cardiomyocytes were obtained. Verapamil is a Ca channel antagonist having an Ikr inhibitory effect.
# [4] = system: cardiomyocyte multicellular construct (human iPS cell derived cardiomyocytes); assay: Example 7: contractile force and contraction-relaxation rate of cardiomyocyte multicellular construct (MUSCLEMOTION); type: cell-based; settings: 1000 nM, seventh day of the culture
# [5] = system: human iPS cell derived cardiomyocyte multicellular construct; assay: Example 5: calcium ion imaging of multicellular construct, response against isoproterenol; type: cell-based; settings: 100 nM, 5 minutes after addition, fourth day of the culture; 60 bpm before the addition
# Experimental: Cells were seeded in the same manner as in Example 4, and a liquid culture medium was added 4 hours later to start cell culturing. On the fourth day of the culture, a calcium indicator (EarlyTox Cardiotoxicity Kit, Molecular Devices LLC.) was added to the culture medium at a volume ratio of 5/100 to fluorescently stain calcium ions in the cardiomyocytes.
# Videos were captured at 20 FPS using a confocal imaging confocal imaging system (CellVoyager CQ1, Yokogawa Electric Corp.). Fluorescent areas in the obtained videos were recognized using an analysis software CellPathfinder, Yokogawa Electric Corp.), and signal waveforms of calcium ions in the cardiomyocytes were obtained by plotting the fluorescence intensities versus time.
# [6] = system: cardiomyocyte multicellular construct (human iPS cell derived cardiomyocytes)
SMILES,"Ratio of specimens that exhibited the calcium ion signal waveform corresponding to arrhythmia, Dose 1 (%) [1] [%]","Ratio of specimens that exhibited the calcium ion signal waveform corresponding to arrhythmia, Dose 2 (%) [1] [%]","Ratio of specimens that exhibited the calcium ion signal waveform corresponding to arrhythmia, Dose 3 (%) [1] [%]","Ratio of specimens that exhibited the calcium ion signal waveform corresponding to arrhythmia, Dose 4 (%) [1] [%]","Ratio of specimens whose contractile force decreased to half of that before the addition, Dose 1 (%) [2] [%]","Ratio of specimens whose contractile force decreased to half of that before the addition, Dose 2 (%) [2] [%]","Ratio of specimens whose contractile force decreased to half of that before the addition, Dose 3 (%) [2] [%]",Calcium ion signal waveform compared with before the addition [3],Beating rate compared with before the addition [3],Contractile force compared with before the addition [4],Contraction-relaxation rate compared with before the addition [4],other results
"CC[C@H]1OC(=O)[C@H](C)[C@@H](O[C@H]2C[C@@](C)(OC)[C@@H](O)[C@H](C)O2)[C@H](C)[C@@H](O[C@@H]2O[C@H](C)C[C@H](N(C)C)[C@H]2O)[C@](C)(O)C[C@@H](C)CN(C)[C@H](C)[C@@H](O)[C@]1(C)O [Azithromycin, azithromycin]",0,0,0,0,0,0,100,,,,,
Cc1cccc(CCN2CCC(C(=O)c3ccc(NS(C)(=O)=O)cc3)CC2)n1 [Example E-4031],,,,,,,,became flattened,decreased,decreased,decreased,
"CCN(CCO)CCCC(C)Nc1ccnc2cc(Cl)ccc12 (stereo not drawn) [Hydroxychloroquine, hydroxychloroquine]",0,0,20,80,0,0,20,,,,,"Risk of arrhythmia (conclusion from FIG. 20 and Table 6) ([1]; concentrations of Table 5): increase the risk of arrhythmia; Ratio of specimens whose contractile force decreased to half of that before the addition, Dose 4 (%) ([2]; Dose 4 of Table 5: chloroquine or hydroxychloroquine 10 μM): 100%"
"COc1ccc(CCN(C)CCCC(C#N)(c2ccc(OC)c(OC)c2)C(C)C)cc1OC (stereo not drawn) [Verapamil, verapamil]",,,,,,,,became smaller,increased,decreased,decreased,
"CC(C)NCC(O)c1ccc(O)c(O)c1 (stereo not drawn) [Isoproterenol, isoproterenol]",,,,,,,,became sharper,increased,increased,increased,Beating rate after the addition [5]: 76 bpm
"CCN(CC)CCCC(C)Nc1ccnc2cc(Cl)ccc12 (stereo not drawn) [Chloroquine, chloroquine]",,,,,,,,,,,,Risk of arrhythmia (conclusion from FIG. 20 and Table 6) [6]: increase the risk of arrhythmia
